Laboratory results as given in patent publication US20240246954A1, “COMPOSITIONS AND METHODS FOR INHIBITING KRAS” (TheRas, Inc., priority 2021, published 2024).
Like-named read-outs stand apart in the source and are kept apart here.

How the values were obtained:
[1] = molecular target: GDP KRAS G12D (Homo sapiens, UniProt P01116, G12D); assay: SPR binding affinity, GDP KRAS G12D; settings: GDP-bound KRAS G12D
[2] = system: pERK in GP2d cells (KRAS G12D); assay: Cell-based pERK HTRF assay; settings: 60 min incubation
Summary of the method: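 GP2d cells (DMEM, 10% FBS) treated 60 min with compounds in a 9-point half-log series from 1 μM top concentration, 0.25% DMSO. Lysates read for pERK by HTRF (d2/Eu cryptate antibodies) after 4–24 h at room temperature; emission at 615 nm.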

[3] = molecular target: T1, Avi-KRAS G12D/Q25A (1-169) GppNHp/3×FLAG-PI3KCA (157-299) (Homo sapiens, UniProt P01116, G12D/Q25A); assay: HTRF PI3KCA-KRAS G12D/Q25A-GppNHp disruption assay; format: biochemical; settings: 1 h incubation
T1 construct: Avi-KRAS G12D/Q25A (1-169) GppNHp
Summary of the method: (§1)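 HTRF read-out (320 nm excitation, 615 nm emission) after two 1 h room-temperature incubations, first with protein mix, then detection reagents. Ten-point dilution series starting at 100 μM; results given as % activity relative to DMSO at 100%.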

[4] = molecular target: GppNHp KRAS G12D (Homo sapiens, UniProt P01116, G12D); assay: SPR binding affinity, GppNHp KRAS G12D; settings: GppNHp-bound KRAS G12D
[5] = molecular target: T2, Avi-KRAS G12D (1-169) GppNHp/RAF1 RBD-3×FLAG (52-151) (Homo sapiens, UniProt P01116, G12D); assay: HTRF Raf1-KRAS G12D-GppNHp disruption assay; format: biochemical; settings: 1 h incubation
T2 construct: Avi-KRAS G12D (1-169) GppNHp
Summary of the method: as §1

GppNHp KRAS G12D, sequence (P01116 1-188 isoform P01116-2 G12D): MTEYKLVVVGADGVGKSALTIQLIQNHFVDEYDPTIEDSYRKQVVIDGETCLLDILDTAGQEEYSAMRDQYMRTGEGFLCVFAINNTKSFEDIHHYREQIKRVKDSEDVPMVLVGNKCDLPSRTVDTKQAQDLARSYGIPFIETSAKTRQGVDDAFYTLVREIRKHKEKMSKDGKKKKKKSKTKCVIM
GDP KRAS G12D, sequence (P01116 1-188 isoform P01116-2 G12D): as above
T2 sequence (P01116 1-169 isoform P01116-2 G12D limits assumed): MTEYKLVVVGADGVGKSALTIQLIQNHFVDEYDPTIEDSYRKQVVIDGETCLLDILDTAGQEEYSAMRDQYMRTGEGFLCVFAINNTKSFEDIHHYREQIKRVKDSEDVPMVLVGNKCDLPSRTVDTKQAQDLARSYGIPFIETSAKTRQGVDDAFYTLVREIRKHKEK
T1 sequence (P01116 1-169 isoform P01116-2 G12D/Q25A limits assumed): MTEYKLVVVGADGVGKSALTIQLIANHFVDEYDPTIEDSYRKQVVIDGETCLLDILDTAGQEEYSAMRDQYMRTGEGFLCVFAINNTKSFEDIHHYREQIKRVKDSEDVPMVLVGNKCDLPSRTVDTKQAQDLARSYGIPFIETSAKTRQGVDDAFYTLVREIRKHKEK

Nc1nc2c(-c3c(C(F)(F)F)cc4c(N[C@@H]5CCNC5)nc(OC[C@@]56CCCN5C[C@H](F)C6)nc4c3F)ccc(F)c2s1 (atropisomer, axis not shown) [Compound 248]
Kd [1]: ≤ 100 nM | IC50 ([2]; GP2d, 1 h): > 1000 nM | IC50 [3]: 100 to 1000 nM | Kd [4]: ≤ 100 nM | IC50 [5]: ≤ 100 nM

Nc1nc2c(-c3c(C(F)(F)F)cc4c(N5CC6CCC(C5)N6)nc(OC[C@@]56CCCN5C[C@H](F)C6)nc4c3F)ccc(F)c2s1 (single isomer, unassigned) [Compound 245]
Kd [1]: ≤ 100 nM | IC50 ([2]; GP2d, 1 h): ≤ 100 nM | IC50 [3]: ≤ 100 nM | Kd [4]: ≤ 100 nM | IC50 [5]: ≤ 100 nM

CN(C)C1CN(c2nc(NCCN)c3cc(Cl)c(-c4ccc(F)c5sc(N)nc45)c(F)c3n2)C1 [Compound 46, N^1-(7-(2-amino-7-fluorobenzo[d]thiazol-4-yl)-6-chloro-2-(3-(dimethylamino)azetidin-1-yl)-8-fluoroquinazolin-4-yl)ethane-1,2-diamine]
Kd [1]: 1000 to 10000 nM | IC50 [3]: 10000 to 30000 nM | Kd [4]: 10000 to 30000 nM | IC50 [5]: 10000 to 30000 nM

CN(C)C1CN(c2nc(N3CCNCC3)c3cc(Cl)c(-c4ccc(F)c5sc(N)nc45)c(F)c3n2)C1 [Compound 47]
Kd [1]: 1000 to 10000 nM | IC50 [3]: 10000 to 30000 nM | Kd [4]: 10000 to 30000 nM | IC50 [5]: 10000 to 30000 nM

CN1CCC[C@H]1COc1nc(NCCN)c2cc(Cl)c(-c3ccc(F)c4sc(N)nc34)c(F)c2n1 [Compound 49]
Kd [1]: ≤ 100 nM | IC50 [3]: 1000 to 10000 nM | Kd [4]: 1000 to 10000 nM | IC50 [5]: 1000 to 10000 nM

CN1CCC[C@H]1COc1nc(N2CCN(C(=O)CN)[C@@H](CC#N)C2)c2cc(Cl)c(-c3ccc(F)c4sc(N)nc34)c(F)c2n1 [Compound 54]
Kd [1]: 100 to 1000 nM | IC50 [3]: 1000 to 10000 nM | Kd [4]: 1000 to 10000 nM | IC50 [5]: 1000 to 10000 nM

CN1CCC[C@H]1COc1nc(NC2CNC2)c2cc(Cl)c(-c3ccc(F)c4sc(N)nc34)c(F)c2n1 [Compound 55, 4-(4-(azetidin-3-ylamino)-6-chloro-8-fluoro-2-(((S)-1-methylpyrrolidin-2-yl)methoxy)quinazolin-7-yl)-7-fluorobenzo[d]thiazol-2-amine]
Kd [1]: ≤ 100 nM | IC50 [3]: 1000 to 10000 nM | Kd [4]: 1000 to 10000 nM | IC50 [5]: 1000 to 10000 nM

CN1CCC[C@H]1COc1nc(N2CCN[C@@H](CC#N)C2)c2cc(Cl)c(-c3ccc(F)c4sc(N)nc34)c(F)c2n1 [Compound 56]
Kd [1]: 100 to 1000 nM | IC50 [3]: 10000 to 30000 nM | Kd [4]: 10000 to 30000 nM | IC50 [5]: 10000 to 30000 nM

Nc1nc2c(-c3c(C(F)(F)F)cc4c(NC5CNC5)nc(OCC56CCCN5CCC6)nc4c3F)ccc(F)c2s1 [Compound 120]
Kd [1]: ≤ 100 nM | IC50 ([2]; GP2d, 1 h): > 1000 nM | IC50 [3]: 100 to 1000 nM | Kd [4]: ≤ 100 nM | IC50 [5]: 100 to 1000 nM

Nc1nc2c(-c3c(Cl)cc4c(N5CC6CCC(C5)N6)nc(OCC56CCCN5CCC6)nc4c3F)ccc(F)c2s1 [Compound 157, 4-(4-(3,8-diazabicyclo[3.2.1]octan-3-yl)-6-chloro-8-fluoro-2-((tetrahydro-1H-pyrrolizin-7a(5H)-yl)methoxy)quinazolin-7-yl)-7-fluorobenzo[d]thiazol-2-amine]
Kd [1]: ≤ 100 nM | IC50 ([2]; GP2d, 1 h): 100 to 1000 nM | IC50 [3]: 100 to 1000 nM | Kd [4]: ≤ 100 nM | IC50 [5]: 100 to 1000 nM

Nc1nc2c(-c3c(C(F)(F)F)cc4c(N5CC6CCC(C5)N6)nc(OCC56CCCN5CCC6)nc4c3F)ccc(F)c2s1 [Compound 158, 4-(4-(3,8-diazabicyclo[3.2.1]octan-3-yl)-8-fluoro-2-((tetrahydro-1H-pyrrolizin-7a(5H)-yl)methoxy)-6-(trifluoromethyl)quinazolin-7-yl)-7-fluorobenzo[d]thiazol-2-amine]
Kd [1]: ≤ 100 nM | IC50 ([2]; GP2d, 1 h): ≤ 100 nM | IC50 [3]: 100 to 1000 nM | Kd [4]: ≤ 100 nM | IC50 [5]: 100 to 1000 nM

Nc1nc2c(-c3c(C(F)(F)F)cc4c(N5CC6CCC(C5)N6)nc(OC[C@@]56CCCN5C[C@H](F)C6)nc4c3F)ccc(F)c2s1 [Compound 219, 4-(4-(3,8-diazabicyclo[3.2.1]octan-3-yl)-8-fluoro-2-(((2R,7aS)-2-fluorotetrahydro-1H-pyrrolizin-7a(5H)-yl)methoxy)-6-(trifluoromethyl)quinazolin-7-yl)-7-fluorobenzo[d]thiazol-2-amine]
Kd [1]: ≤ 100 nM | IC50 ([2]; GP2d, 1 h): ≤ 100 nM | IC50 [3]: 100 to 1000 nM | Kd [4]: ≤ 100 nM | IC50 [5]: ≤ 100 nM

CN1C2CCC1CN(c1nc(OC[C@@]34CCCN3C[C@H](F)C4)nc3c(F)c(-c4ccc(F)c5sc(N)nc45)c(C(F)(F)F)cc13)C2 [Compound 221]
Kd [1]: ≤ 100 nM | IC50 ([2]; GP2d, 1 h): 100 to 1000 nM | IC50 [3]: 1000 to 10000 nM | Kd [4]: 1000 to 10000 nM | IC50 [5]: 1000 to 10000 nM

Nc1nc2c(-c3c(C(F)(F)F)cc4c(N5CC6CC5CN6)nc(OC[C@@]56CCCN5C[C@H](F)C6)nc4c3F)ccc(F)c2s1 (stereo partly shown) [Compound 241]
Kd [1]: ≤ 100 nM | IC50 ([2]; read-out: pERK-Gp2D-1hr): ≤ 100 nM | IC50 [3]: 100 to 1000 nM | Kd [4]: ≤ 100 nM | IC50 [5]: 100 to 1000 nM

N#Cc1c(N)sc2c(F)ccc(-c3c(C(F)(F)F)cc4c(N5C[C@H]6CC[C@@H](C5)N6)nc(OC[C@@]56CCCN5C[C@H](F)C6)nc4c3F)c12 [Compound 255, 4-(4-((1R,5S)-3,8-diazabicyclo[3.2.1]octan-3-yl)-8-fluoro-2-(((2R,7aS)-2-fluorotetrahydro-1H-pyrrolizin-7a(5H)-yl)methoxy)-6-(trifluoromethyl)quinazolin-7-yl)-2-amino-7-fluorobenzo[b]thiophene-3-carbonitrile]
Kd [1]: ≤ 100 nM | IC50 ([2]; GP2d, 1 h): ≤ 100 nM | IC50 [3]: 100 to 1000 nM | Kd [4]: ≤ 100 nM | IC50 [5]: ≤ 100 nM

N#Cc1c(N)sc2c(F)ccc(-c3c(Cl)cc4c(N5C[C@H]6CC[C@@H](C5)N6)nc(OC[C@@]56CCCN5C[C@H](F)C6)nc4c3F)c12 [Compound 260, 4-(4-((1R,5S)-3,8-diazabicyclo[3.2.1]octan-3-yl)-6-chloro-8-fluoro-2-(((2R,7aS)-2-fluorotetrahydro-1H-pyrrolizin-7a(5H)-yl)methoxy)quinazolin-7-yl)-2-amino-7-fluorobenzo[b]thiophene-3-carbonitrile]
Kd [1]: ≤ 100 nM | IC50 ([2]; GP2d, 1 h): ≤ 100 nM | IC50 [3]: 100 to 1000 nM | Kd [4]: ≤ 100 nM | IC50 [5]: ≤ 100 nM

CN(c1nc(OC[C@@]23CCCN2C[C@H](F)C3)nc2c(F)c(-c3ccc(F)c4sc(N)nc34)c(C(F)(F)F)cc12)C1C2C[C@H]1CN2 (stereo partly shown) [Compound 289]
Kd [1]: ≤ 100 nM | IC50 [3]: 100 to 1000 nM | Kd [4]: 100 to 1000 nM | IC50 [5]: 100 to 1000 nM

CN(c1nc(OC[C@@]23CCCN2C[C@H](F)C3)nc2c(F)c(-c3ccc(F)c4sc(N)nc34)c(C(F)(F)F)cc12)[C@H]1CNC[C@H]1F [Compound 290]
Kd [1]: ≤ 100 nM | IC50 ([2]; GP2d, 1 h): ≤ 100 nM | IC50 [3]: 100 to 1000 nM | Kd [4]: 100 to 1000 nM | IC50 [5]: 100 to 1000 nM

N#Cc1c(N)sc2c(F)ccc(-c3c(C(F)F)cc4c(N5C[C@H]6CC[C@@H](C5)N6)nc(OC[C@@]56CCCN5C[C@H](F)C6)nc4c3F)c12 [Compound 301, 4-(4-((1R,5S)-3,8-diazabicyclo[3.2.1]octan-3-yl)-6-(difluoromethyl)-8-fluoro-2-(((2R,7aS)-2-fluorotetrahydro-1H-pyrrolizin-7a(5H)-yl)methoxy)quinazolin-7-yl)-2-amino-7-fluorobenzo[b]thiophene-3-carbonitrile]
Kd [1]: ≤ 100 nM | IC50 ([2]; GP2d, 1 h): ≤ 100 nM | IC50 [3]: 100 to 1000 nM | Kd [4]: ≤ 100 nM | IC50 [5]: 100 to 1000 nM
